Source: ChEMBL document CHEMBL1151970, “Cardioprotection with the parrodiene 2,4,6-octatrienal and its potassium salt through activation of the Akt-Bcl-2 survival pathway” (2009)
The source made the active and inactive calls.

Key:
[1] = tested on: Heart; test: Cardioprotective activity in Langendorff perfused Sprague-Dawley rat heart assessed as recovery of left ventricular developed pressure at 50 mM preperfused 15 mins before global ischemia challenge for 30 mins followed by 120 mins of reperfusion; assay type: functional, tissue-based
[2] = tested on: Heart; test: Cardioprotective activity in Langendorff perfused Sprague-Dawley rat heart assessed as recovery of first derivative of left ventricular developed pressure at 50 mM preperfused 15 mins before global ischemia challenge for 30 mins followed by 120 mins of reperfusion; assay type: functional, tissue-based
[3] = tested on: Heart; test: Cardioprotective activity in Langendorff perfused Sprague-Dawley rat heart assessed as recovery of aortic pressure at 50 mM preperfused 15 mins before global ischemia challenge for 30 mins followed by 120 mins of reperfusion; assay type: functional, tissue-based
[4] = tested on: Heart; test: Cardioprotective activity in Langendorff perfused Sprague-Dawley rat heart assessed as reduction in myocardial infarction size at 50 mM preperfused 15 mins before global ischemia challenge for 30 mins followed by 120 mins of reperfusion by triphenyl tetrazolium chloride method; assay type: functional; design: scale not given: the % may be the effect or the level left
[5] = tested on: Heart; test: Cardioprotective activity in Langendorff perfused Sprague-Dawley rat heart assessed as reduction in number of cardiomycotic apoptic cells at 50 mM preperfused 15 mins before global ischemia challenge for 30 mins followed by 120 mins of reperfusion by TUNEL assay; assay type: functional; design: scale not given: the % may be the effect or the level left
[6] = tested on: Heart; test: Cardioprotective activity in Langendorff perfused Sprague-Dawley rat heart assessed as prevention of cytochrom c release from cytosolic fraction at 50 mM preperfused 15 mins before global ischemia challenge for 30 mins followed by 120 mins of reperfusion by Western blotting; assay type: functional, tissue-based
[7] = tested on: Heart; test: Cardioprotective activity in Langendorff perfused Sprague-Dawley rat heart assessed as reduction of pro-caspase 3 activation in ischemic reperfused myocardium at 50 mM preperfused 15 mins before global ischemia challenge for 30 mins followed by 120 mins of reperfusion by Western blotting; assay type: functional, tissue-based
[8] = tested on: Heart; test: Cardioprotective activity in Langendorff perfused Sprague-Dawley rat heart assessed as reduction of caspase 3 activation at 50 mM preperfused 15 mins before global ischemia challenge for 30 mins followed by 120 mins of reperfusion by Western blotting; assay type: functional, tissue-based
[9] = tested on: Heart; test: Cardioprotective activity in Langendorff perfused Sprague-Dawley rat heart assessed as activation of Akt phosphorylation at 50 mM preperfused 15 mins before global ischemia challenge for 30 mins followed by 120 mins of reperfusion; assay type: functional, tissue-based
[10] = tested on: Heart; test: Cardioprotective activity in Langendorff perfused Sprague-Dawley rat heart assessed as […] of Bcl2 at 50 mM preperfused 15 mins before global ischemia challenge for 30 mins followed by 120 mins of reperfusion by Western blotting; assay type: functional, tissue-based
[11] = tested on: Heart; test: Cardioprotective activity in Langendorff perfused Sprague-Dawley rat heart assessed as down regulation of HO1 at 50 mM preperfused 15 mins before global ischemia challenge for 30 mins followed by 120 mins of reperfusion by Western blotting; assay type: functional, tissue-based

Measured: Activity

C/C=C/C=C/C=C/C(=O)[O-].[K+]
15%: [4]
13.6%: [5]
active: all other assays above

C/C=C/C=C/C=C/C=O
15%: [5]
16%: [4]
active: all other assays above
